In the supplement of paper PMC10307832:

Key:
Assay in all cases: relative viability (nuclei count vs DMSO), 5 days (fraction); higher = more cells survive
Crizotinib + Alpelisib = compound: C[C@@H](Oc1cc(-c2cnn(C3CCNCC3)c2)cnc1N)c1c(Cl)ccc(F)c1Cl [Crizotinib] + Cc1nc(NC(=O)N2CCC[C@H]2C(N)=O)sc1-c1ccnc(C(C)(C)C(F)(F)F)c1 [Alpelisib] (partner 2 µM)
Summary of the method: (§1)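 Lung cancer cell lines, seeded in 1536-well plates, were treated the following day by pin tool with a single drug or with five library-drug doses (not always all listed) in √10 steps on top of a fixed anchor-drug dose. Cells were fixed and nuclei stained in one step after 5 days, and nuclei were counted. Relative viability is the nuclei count for treated wells divided by that for vehicle wells, reported as medians of duplicate plates.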

Olaparib + Luminespib = compound: O=C(c1cc(Cc2n[nH]c(=O)c3ccccc23)ccc1F)N1CCN(C(=O)C2CC2)CC1 [Olaparib] + CCNC(=O)c1noc(-c2cc(C(C)C)c(O)cc2O)c1-c1ccc(CN2CCOCC2)cc1 [Luminespib] (partner 0.01 µM)
Summary of the method: as §1

Carfilzomib + Trametinib = compound: CC(C)C[C@H](NC(=O)[C@H](CCc1ccccc1)NC(=O)CN1CCOCC1)C(=O)N[C@@H](Cc1ccccc1)C(=O)N[C@@H](CC(C)C)C(=O)[C@@]1(C)CO1 [Carfilzomib] + CC(=O)Nc1cccc(-n2c(=O)n(C3CC3)c(=O)c3c(Nc4ccc(I)cc4F)n(C)c(=O)c(C)c32)c1 [Trametinib] (partner 0.02 µM)
Summary of the method: as §1

Olaparib + Lapatinib = compound: O=C(c1cc(Cc2n[nH]c(=O)c3ccccc23)ccc1F)N1CCN(C(=O)C2CC2)CC1 [Olaparib] + CS(=O)(=O)CCNCc1ccc(-c2ccc3ncnc(Nc4ccc(OCc5cccc(F)c5)c(Cl)c4)c3c2)o1 [Lapatinib] (partner 2 µM)
Summary of the method: as §1

Row | Cell Line | relative viability (Crizotinib + Alpelisib; first compound 0.01 µM) | relative viability (Crizotinib + Alpelisib; first compound 0.03162 µM) | relative viability (Crizotinib + Alpelisib; first compound 0.1 µM) | relative viability (Crizotinib + Alpelisib; first compound 0.3162 µM) | relative viability (Crizotinib + Alpelisib; first compound 1 µM) | relative viability (Olaparib + Luminespib; first compound 0.08 µM) | relative viability (Olaparib + Luminespib; first compound 0.253 µM) | relative viability (Olaparib + Luminespib; first compound 2.53 µM) | relative viability (Olaparib + Luminespib; first compound 8 µM) | relative viability (Carfilzomib + Trametinib; first compound 0.001 µM) | relative viability (Carfilzomib + Trametinib; first compound 0.003162 µM) | relative viability (Carfilzomib + Trametinib; first compound 0.01 µM) | relative viability (Carfilzomib + Trametinib; first compound 0.03162 µM) | relative viability (Carfilzomib + Trametinib; first compound 0.1 µM) | relative viability (Olaparib + Lapatinib; first compound 0.08 µM) | relative viability (Olaparib + Lapatinib; first compound 0.253 µM) | relative viability (Olaparib + Lapatinib; first compound 2.53 µM) | relative viability (Olaparib + Lapatinib; first compound 8 µM)
1 | NCI-H2347 | 1.04 | 1.03 | 1.03 | 0.978 | 0.996 | 0.43 | 0.615 | 0.398 | 0.259 | 0.269 | 0.23 | 0.298 | 0.292 | 0.262 | 0.972 | 0.949 | 0.957 | 0.767
2 | NCI-H2405 | 0.74 | 0.762 | 0.69 | 0.818 | 0.857 | 0.646 | 0.651 | 0.685 | 0.782 | 0.758 | 0.748 | 0.686 | 0.536 | 0.236 | 1.41 | 1.06 | 0.924 | 0.972
3 | NCI-H3122 | 0.729 | 0.667 | 0.857 | 0.867 | 0.796 | 0.0823 | 0.107 | 0.101 | 0.0643 | 0.196 | 0.234 | 0.255 | 0.244 | 0.239 | 1.02 | 0.934 | 0.936 | 0.946
4 | PC-3 [JPC-3] | 0.959 | 1.04 | 1.05 | 0.998 | 1.07 | 0.832 | 0.749 | 0.587 | 0.592 | 0.77 | 0.679 | 0.706 | 0.552 | 0.279 | 0.558 | 0.417 | 0.429 | 0.463
5 | PC-14 | 0.914 | 0.921 | 0.931 | 0.845 | 0.911 | 0.199 | – | 0.134 | 0.156 | 0.749 | 0.672 | 0.588 | 0.0506 | 0.0646 | 0.368 | 0.319 | 0.298 | 0.307
6 | RERF-LC-KJ | 0.702 | 0.847 | 0.82 | 0.816 | – | 1.22 | 1.08 | 1.23 | 1 | 0.864 | 0.908 | 0.941 | 0.511 | 0.211 | 0.872 | 0.831 | 0.971 | 0.872
7 | SK-LU-1 | 0.989 | 1.04 | 1.11 | 1.17 | – | 0.228 | 0.178 | 0.194 | 0.199 | 0.394 | 0.545 | 0.474 | 0.202 | 0.185 | 1.2 | 0.803 | 0.83 | 0.683
8 | SK-MES-1 | 0.775 | 0.929 | 0.79 | 0.803 | – | 0.841 | 0.774 | 0.727 | 0.604 | 0.545 | 0.536 | 0.549 | 0.44 | 0.201 | 0.537 | 0.491 | 0.501 | 0.433
9 | SW 1573 | 0.663 | 0.896 | 0.638 | 0.732 | 0.779 | 0.376 | 0.221 | 0.204 | 0.158 | 0.55 | 0.626 | 0.55 | 0.0697 | 0.0572 | 1.16 | 1 | 1 | 0.689
10 | UMC-11 | 0.961 | 0.921 | 0.968 | 0.956 | 0.974 | 1.06 | 0.855 | 0.683 | 0.414 | 0.32 | 0.739 | 0.657 | 0.703 | 0.322 | 1.08 | 0.928 | 0.643 | 0.365
